Measured values as given in US6403636B1, “Xanthone compounds, their preparation and use as medicament” (Zentaris AG, priority 1999, dated 2002).
*1 amine or outer side, *2 acyl side, *3 side chain or, on linkers, in order; H or OH if unused. Where a SMILES comes first, the peptide text is derived from it. Bridges are numbered along the chain shown (N, C = ends). Roman numbers before positions name the chains, in order. [ ]: non-standard residue; d: D form. Actinocin(9to1) = Cc1c2oc3c(C)ccc(C(=O)[*:1])c3nc-2c(C(=O)[*:2])c(N)c1=O; NMeV = CN[C@H](C(=O)O)C(C)C; Sar = CNCC(=O)O

Assays:
[1] = test system: KB: epidermal carcinoma of the oral cavity; test: In vivo antitumor activity (hollow fiber assay), KB; conditions: for % Inhibition (cell line) KB: location s.c., i.p. doses (mg/kg): sootepenseone 4 × 10, Actinomycin D 4 × 0.1, Adriamycin 4 × 4, Bleomycin 4 × 8, Vinblastin 4 × 0.65
Method: (§1) The hollow-fiber test was carried out as described by Melinda G. Hollingshead et al. in Life Sciences, Vol. 57, No. 2, pp.131-141, 1995.

[2] = test system: mice; test: Toxicity (LD50, i.p., mice)
[3] = test system: MCF-7: human breast cancer; test: In vivo antitumor activity (hollow fiber assay), MCF-7; conditions: location s.c.; i.p. doses (mg/kg): sootepenseone 4 × 10, Actinomycin D 4 × 0.1, Adriamycin 4 × 4, Bleomycin 4 × 8, Vinblastin 4 × 0.65; negative values = increase in cell growth
Method: as §1

[4] = in vivo; conditions: mouse, ip
[5] = test system: KB: epidermal carcinoma of the oral cavity; test: XTT proliferation/cytotoxicity test, KB; format: cell-based; conditions: all tested tumor cell lines (KB, L1210, SK-OV-3, LNCAP)
Method: The XTT-assay was carried out as described by D. A. Scudiero et al., Cancer Res. 48 (Sep. 1, 1988), pp. 4827-4833. The results of this procedure are expressed as that dose which inhibits growth by 50% as compared to control growth after 45 hours following application of the substance. The dose value as obtained is referred to as ED 50 and activity is indicated for ED 50 levels of ≦30 μg/ml. […] The activities of sootepenseone (1) obtained in Example 1 are reported below in Table 2.

Compound	% Inhibition (cell line) KB [1] [%]	LD50 (mg/kg i.p. mice) [2]	% Inhibition (cell line) MCF-7 [3] [%]	LD50 [4] [mg/kg]	anticancer activity against all tested tumor cell lines [5]	activity in the hollow-fiber test compared with the standard compounds ([1]; in words, KB and MCF-7)	less toxic than Adriamycin ([2]; from LD50 i.p. mice) [%]	less toxic than Bleomycin ([2]; from LD50 i.p. mice) [%]	times less toxic than Actinomycin D ([2]; from LD50 i.p. mice)	times less toxic than Vinblastin ([2]; from LD50 i.p. mice)
Cc1c2oc3c(C)ccc(C(=O)N[C@@H]4C(=O)N[C@H](C(C)C)C(=O)N5CCC[C@H]5C(=O)N(C)CC(=O)N(C)[C@@H](C(C)C)C(=O)O[C@@H]4C)c3nc-2c(C(=O)N[C@@H]2C(=O)N[C@H](C(C)C)C(=O)N3CCC[C@H]3C(=O)N(C)CC(=O)N(C)[C@@H](C(C)C)C(=O)O[C@@H]2C)c(N)c1=O [Actinomycin D] (I: T[dV]P[Sar][NMeV] / II: T[dV]P[Sar][NMeV]; ester I:1-I:C, II:1-II:C; linker I:N-II:N via Actinocin(9to1))	40	ca. 1 mg/kg	–	–	–	–	–	–	–	–
COc1cccc2c1C(=O)c1c(O)c3c(c(O)c1C2=O)C[C@@](O)(C(=O)CO)C[C@@H]3O[C@H]1C[C@H](N)[C@H](O)[C@H](C)O1 [Adriamycin]	52	–	41	~40	–	–	–	–	–	–
CC(C)=CC[C@]12OC(C)(C)C3CC(C=C4C(=O)c5c(O)cc6c(c5OC431)C(C)(C)C(C)O6)C2=O (stereo partly drawn) [Sootepenseone (1; D-25637), sootepenseone]	49	–	41	> 100	significant anticancer activity	more active	60	20	at least 100 times	about 16 times
CC[C@]1(O)C[C@@H]2CN(CCc3c([nH]c4ccccc34)[C@@](C(=O)OC)(c3cc4c(cc3OC)N(C)[C@H]3[C@@](O)(C(=O)OC)[C@H](OC(C)=O)[C@]5(CC)C=CCN6CC[C@]43[C@@H]65)C2)C1 [Vinblastin]	13	ca. 6 mg/kg	–	–	–	–	–	–	–	–
Bleomycin	53	ca. 80 mg/kg	–	–	–	–	–	–	–	–
